Data published in patent US5304470A, “Process for the enzymatic preparation of protected and unprotected di- and oligopeptides in aqueous solutions” (Forschungszentrum Juelich GmbH, priority 1991, dated 1994).

Text: (§1) The ethyl ester of tyrosine was reacted.
as §1, §1

With `CCOC(=O)C(CCCNC(=N)N)NC(=O)C=CC(=O)O` (stereo not drawn) [Mal-Arg-OEt] as the compound, how does the solubility in water read?
Its solubility in water is over 1000 mM.

For `CCOC(=O)[C@H](Cc1c[nH]c2ccccc12)NC(=O)/C=C\C(=O)O` [Mal-Trp-OEt], which solubility in water is on record?
Its solubility in water is over 700 mM.

For `CCOC(=O)C(Cc1ccccc1)NC(=O)C=CC(=O)O` (stereo not drawn) [Mal-Phe-OEt], which solubility in water is on record?
The solubility in water was over 700 mM.

With `CCOC(=O)[C@H](Cc1ccc(O)cc1)NC(=O)/C=C\C(=O)O` [Mal-Tyr-OEt] as the compound, how does the solubility in water read?
Its solubility in water is over 600 mM.
